Data published in ChEMBL document CHEMBL5614459, “Conformationally Constrained Isoquinolinones as Orally Efficacious Hepatitis B Capsid Assembly Modulators” (ACS Med Chem Lett, 2024).
Values belong to the compound of their own block, whether it stands above or below them. The source made the active and inactive calls. The rule behind the calls is not given here.

How the values were obtained:
[1] = Cytotoxicity against human HepDE19 cells by CellTiter-Glo assay; format: toxicity, cell-based
[2] = Intrinsic clearance in mouse liver microsomes; format: ADME, Microsome; conditions: read-out: CLH
Hepatitis B virus [3] = assay: Antiviral activity against Hepatitis B virus genotype D infected in HepDE19 cells assessed as inhibition of viral replication by measuring decrease in intracellular rcDNA level by bDNA assay; format: functional, organism-based
[4] = Selectivity index, ratio of CC50 for cytotoxicity against human HepDE19 cells to EC50 for antiviral activity against Hepatitis B virus genotype D infected in HepDE19 cells; format: toxicity, cell-based; conditions: read-out: Ratio CC50/EC50
[5] = Intrinsic clearance in human liver microsomes; format: ADME, Microsome; conditions: read-out: CLH
Hepatitis B virus [6] = assay: Anti-viral activity against Hepatitis B virus infected in mouse assessed as log10 reduction of HBV DNA levels in serum at 3 mg/kg, po qd for 7 days; format: functional; conditions: time 7 day
[7] = Cmax in CD-1 mouse at 10 mg/kg, po; format: ADME, organism-based; conditions: in vivo
Hepatitis B virus [8] = assay: Antiviral activity against Hepatitis B virus genotype D harboring core protein-T33N mutant; format: functional, organism-based
[9] = Half life in CD-1 mouse at 10 mg/kg, po; format: ADME, organism-based; conditions: in vivo
Hepatitis B virus [10] = assay: Anti-viral activity against Hepatitis B virus infected in mouse assessed as log10 reduction of HBV DNA levels in serum at 10 mg/kg, po qd for 7 days; format: functional; conditions: time 7 day
[11] = Drug uptake in CD-1 mouse liver at 10 mg/kg, po or 2 mg/kg, iv measured after 24 hrs; format: ADME, organism-based; conditions: read-out: Drug uptake
[12] = AUC(last) in CD-1 mouse at 10 mg/kg, po; format: ADME, organism-based; conditions: in vivo
Cytochrome P450 2D6 = Cytochrome P450 2D6 (Homo sapiens, UniProt P10635); assay: Inhibition of CYP2D6 (unknown origin); format: ADME
Cytochrome P450 2B6 = target: T1, Cytochrome P450 2B6 (Homo sapiens, UniProt P20813); assay: Inhibition of CYP2B6 (unknown origin); format: ADME
T1 sequence (P20813 whole entry): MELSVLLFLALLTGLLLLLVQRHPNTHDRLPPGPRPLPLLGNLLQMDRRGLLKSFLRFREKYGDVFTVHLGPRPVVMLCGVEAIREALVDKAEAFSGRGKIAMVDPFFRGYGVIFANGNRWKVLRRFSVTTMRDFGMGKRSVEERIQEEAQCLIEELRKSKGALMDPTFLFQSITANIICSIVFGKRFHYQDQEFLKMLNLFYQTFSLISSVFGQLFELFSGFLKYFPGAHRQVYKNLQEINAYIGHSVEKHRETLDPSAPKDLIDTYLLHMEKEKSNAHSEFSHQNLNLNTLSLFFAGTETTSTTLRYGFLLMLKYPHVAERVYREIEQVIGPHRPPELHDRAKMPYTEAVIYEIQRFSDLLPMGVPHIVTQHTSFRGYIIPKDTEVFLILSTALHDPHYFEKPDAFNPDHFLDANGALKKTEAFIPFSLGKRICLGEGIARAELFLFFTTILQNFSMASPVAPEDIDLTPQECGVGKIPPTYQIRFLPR

Cytochrome P450 2C9 = Cytochrome P450 2C9 (Homo sapiens, UniProt P11712); assay: Inhibition of CYP2C9 (unknown origin); format: ADME
Cytochrome P450 3A4 = Cytochrome P450 3A4 (Homo sapiens, UniProt P08684); assay: Inhibition of CYP3A4 (unknown origin); format: ADME
Cytochrome P450 2C19 = Cytochrome P450 2C19 (Homo sapiens, UniProt P33261); assay: Inhibition of CYP2C19 (unknown origin); format: ADME
[13] = target: Core antigen (Hepatitis B virus) (UniProt Q03732); assay: Binding affinity to Hepatitis B virus core protein assessed as inhibition of capsid assembly by measuring induction of empty capsid formation; conditions: filed as modulator
Hepatitis B virus [14] = assay: Antiviral activity against Hepatitis B virus Genotype F (NCBI HE974369); format: functional, organism-based
Hepatitis B virus [15] = assay: Antiviral activity against Hepatitis B virus Genotype H (NCBI AB064315); format: functional, organism-based
Hepatitis B virus [16] = assay: Antiviral activity against Hepatitis B virus Genotype D (NCBI U95551); format: functional, organism-based
Hepatitis B virus [17] = assay: Antiviral activity against Hepatitis B virus Genotype E (NCBI HE974380); format: functional, organism-based
Hepatitis B virus [18] = assay: Antiviral activity against Hepatitis B virus genotype D harboring core protein-I105T mutant; format: functional, organism-based
Hepatitis B virus [19] = assay: Anti-viral activity against Hepatitis B virus infected in mouse assessed as log10 reduction of HBV DNA levels in serum at 1 mg/kg, po qd for 7 days; format: functional; conditions: time 7 day
Hepatitis B virus [20] = assay: Antiviral activity against Hepatitis B virus Genotype E (NCBI AB091255); format: functional, organism-based
Hepatitis B virus [21] = assay: Antiviral activity against Hepatitis B virus Genotype B (NCBI KU964112); format: functional, organism-based
Hepatitis B virus [22] = assay: Antiviral activity against Hepatitis B virus Genotype C (NCBI AB198079); format: functional, organism-based; conditions: genotype C (NCBI […])
Hepatitis B virus [23] = assay: Anti-viral activity against Hepatitis B virus infected in mouse assessed as log10 reduction of HBV DNA levels in serum at 0.3 mg/kg, po qd for 7 days; format: functional; conditions: time 7 day
Hepatitis B virus [24] = assay: Antiviral activity against Hepatitis B virus genotype D infected in HepG2-hNTCP-C4 cells assessed as inhibition of cccDNA formation by de novo infection assay; format: functional, organism-based
Hepatitis B virus [25] = assay: Antiviral activity against Hepatitis B virus Genotype B (NCBI GQ205440); format: functional, organism-based
[26] = target: Core antigen (Hepatitis B virus) (UniProt Q03732); assay: Binding affinity to Hepatitis B virus core protein assessed as inhibition of capsid assembly by measuring inhibition of pgRNA-encapsidation; conditions: filed as modulator
Hepatitis B virus [27] = assay: Antiviral activity against Hepatitis B virus Genotype H (NCBI AB179747); format: functional, organism-based
Hepatitis B virus [28] = assay: Antiviral activity against Hepatitis B virus Genotype A (NCBI AF537372); format: functional, organism-based
[29] = Hepatitis B virus, genotype D, HepDE19

Core antigen (Hepatitis B virus), sequence (Q03732 as listed by the source): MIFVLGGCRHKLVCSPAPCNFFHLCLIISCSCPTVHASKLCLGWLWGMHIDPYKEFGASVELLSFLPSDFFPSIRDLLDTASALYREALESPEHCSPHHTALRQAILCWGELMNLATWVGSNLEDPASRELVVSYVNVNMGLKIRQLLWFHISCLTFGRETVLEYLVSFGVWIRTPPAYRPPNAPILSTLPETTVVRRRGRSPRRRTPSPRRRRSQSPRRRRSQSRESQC
Cytochrome P450 3A4, sequence (P08684 whole entry): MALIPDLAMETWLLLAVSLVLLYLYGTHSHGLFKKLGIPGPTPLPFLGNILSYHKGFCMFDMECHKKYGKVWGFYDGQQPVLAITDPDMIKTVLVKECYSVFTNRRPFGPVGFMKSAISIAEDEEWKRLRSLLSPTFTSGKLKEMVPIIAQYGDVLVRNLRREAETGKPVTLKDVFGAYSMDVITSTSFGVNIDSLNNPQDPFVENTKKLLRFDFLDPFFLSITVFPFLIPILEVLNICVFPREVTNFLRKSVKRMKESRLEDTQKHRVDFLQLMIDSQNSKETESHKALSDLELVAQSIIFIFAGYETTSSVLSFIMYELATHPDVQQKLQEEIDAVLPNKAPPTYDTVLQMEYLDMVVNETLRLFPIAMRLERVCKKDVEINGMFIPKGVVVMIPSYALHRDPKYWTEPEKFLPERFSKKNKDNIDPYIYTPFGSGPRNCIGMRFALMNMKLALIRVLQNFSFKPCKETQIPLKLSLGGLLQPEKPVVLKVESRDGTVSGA
Cytochrome P450 2C19, sequence (P33261 whole entry): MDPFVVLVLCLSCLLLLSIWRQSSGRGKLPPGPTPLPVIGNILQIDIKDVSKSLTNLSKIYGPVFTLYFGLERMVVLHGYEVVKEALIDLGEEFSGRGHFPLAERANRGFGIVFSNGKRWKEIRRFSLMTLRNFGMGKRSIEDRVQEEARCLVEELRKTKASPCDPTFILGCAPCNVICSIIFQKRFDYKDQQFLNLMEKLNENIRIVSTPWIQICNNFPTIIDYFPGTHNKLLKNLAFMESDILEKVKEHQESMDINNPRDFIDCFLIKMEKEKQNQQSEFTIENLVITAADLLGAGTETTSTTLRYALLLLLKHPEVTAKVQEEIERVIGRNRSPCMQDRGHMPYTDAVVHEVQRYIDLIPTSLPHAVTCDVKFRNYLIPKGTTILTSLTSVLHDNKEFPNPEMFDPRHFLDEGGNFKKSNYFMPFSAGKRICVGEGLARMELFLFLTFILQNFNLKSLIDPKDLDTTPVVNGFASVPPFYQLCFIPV
Cytochrome P450 2D6, sequence (P10635 whole entry): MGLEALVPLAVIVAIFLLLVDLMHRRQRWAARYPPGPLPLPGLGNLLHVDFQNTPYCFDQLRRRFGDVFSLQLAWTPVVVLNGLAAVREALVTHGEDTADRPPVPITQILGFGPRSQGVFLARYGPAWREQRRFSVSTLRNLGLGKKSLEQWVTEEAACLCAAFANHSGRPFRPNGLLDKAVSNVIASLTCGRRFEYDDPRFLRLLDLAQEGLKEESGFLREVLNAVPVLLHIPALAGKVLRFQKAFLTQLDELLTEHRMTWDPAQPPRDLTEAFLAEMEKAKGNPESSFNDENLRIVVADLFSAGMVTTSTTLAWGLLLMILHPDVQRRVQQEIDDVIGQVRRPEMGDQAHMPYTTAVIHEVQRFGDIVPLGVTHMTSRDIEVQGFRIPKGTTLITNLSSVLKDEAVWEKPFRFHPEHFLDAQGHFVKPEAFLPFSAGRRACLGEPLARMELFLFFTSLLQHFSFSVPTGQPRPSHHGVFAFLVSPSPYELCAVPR
Cytochrome P450 2C9, sequence (P11712 whole entry): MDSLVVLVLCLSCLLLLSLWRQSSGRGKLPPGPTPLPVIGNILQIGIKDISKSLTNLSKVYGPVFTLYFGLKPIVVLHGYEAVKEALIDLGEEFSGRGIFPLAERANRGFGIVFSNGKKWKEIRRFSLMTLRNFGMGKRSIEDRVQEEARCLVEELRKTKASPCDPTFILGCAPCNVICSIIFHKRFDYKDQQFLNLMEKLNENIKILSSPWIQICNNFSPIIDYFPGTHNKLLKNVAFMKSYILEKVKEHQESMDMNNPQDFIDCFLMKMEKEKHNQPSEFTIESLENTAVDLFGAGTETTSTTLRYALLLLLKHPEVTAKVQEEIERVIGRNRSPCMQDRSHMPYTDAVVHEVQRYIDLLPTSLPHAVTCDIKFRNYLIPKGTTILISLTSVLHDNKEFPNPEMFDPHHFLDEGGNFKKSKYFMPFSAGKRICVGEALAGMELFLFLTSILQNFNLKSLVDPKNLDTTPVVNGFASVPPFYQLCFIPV

Cmax [7]: 720 ng/mL
EC50 (Hepatitis B virus [3]; [29]): 8 nM
half-life [9]: 2.4 h
concentration at 24 h [11]: 8 ng/g
AUC(0-t) [12]: 4330 ng·h/mL
Compound: CN(C(=O)Nc1ccc(F)c(C#N)c1)[C@@H]1COCc2[nH]c(=O)c3cc(F)c(F)cc3c21
CC50 [1]: > 10000 nM
selectivity ratio [4]: > 1500

EC50 (Hepatitis B virus [3]; hepde19): 760 nM
Compound: CN(C(=O)Nc1ccc(F)c(Cl)c1)C1CCCc2[nH]c(=O)c3ccccc3c21 (stereo in doubt)

EC50 (Hepatitis B virus [3]; hepde19): 19 nM
Compound: CN(C(=O)Nc1ccc(F)c(Cl)c1)C1CCCc2[nH]c(=O)c3cc(F)c(F)cc3c21 (racemic)
CC50 [1]: > 10000 nM

microsomal CLint [2]: 23 µL/min/mg
EC50 (Hepatitis B virus [3]; [29]): 9 nM
microsomal CLint [5]: 86 µL/min/mg
Compound: CN(C(=O)Nc1ccc(F)c(Cl)c1)[C@@H]1CNCc2[nH]c(=O)c3cc(F)c(F)cc3c21
CC50 [1]: > 10000 nM
selectivity ratio [4]: > 1500

EC50 (Hepatitis B virus [3]; [29]): 45 nM
Compound: CN(C(=O)Nc1ccc(F)c(Cl)c1)[C@@H]1CCc2[nH]c(=O)c3ccccc3c21
CC50 [1]: > 10000 nM
selectivity ratio [4]: > 1500

EC50 (Hepatitis B virus [3]; hepde19): 84 nM
Compound: CN(C(=O)Nc1ccc(F)c(Cl)c1)C1CCCc2[nH]c(=O)c3ccccc3c21 (racemic)
CC50 [1]: > 10000 nM
selectivity ratio [4]: > 1500

microsomal CLint [2]: 112 µL/min/mg
EC50 (Hepatitis B virus [3]; [29]): 21 nM
microsomal CLint [5]: 216 µL/min/mg
Compound: CN(C(=O)Nc1ccc(F)c(Cl)c1)[C@@H]1CSCc2[nH]c(=O)c3cc(F)c(F)cc3c21
CC50 [1]: > 10000 nM
selectivity ratio [4]: > 1500

The next lines start with the compound.

Compound: CN(C(=O)c1cc2cc(F)ccc2[nH]1)[C@@H]1COCc2[nH]c(=O)c3cc(F)c(F)cc3c21
CC50 [1]: > 10000 nM
microsomal CLint [2]: 48 µL/min/mg
EC50 (Hepatitis B virus [3]; [29]): 4 nM
selectivity ratio [4]: > 1500
microsomal CLint [5]: 95 µL/min/mg

Compound: CN(C(=O)Nc1ccc(F)c(C(F)F)c1)[C@@H]1COCc2[nH]c(=O)c3cc(F)c(F)cc3c21
log(activity) (Hepatitis B virus [6]): 1.68
CC50 [1]: > 10000 nM
Cmax [7]: 2340 ng/mL
EC50 (Hepatitis B virus [8]): 227 nM
EC50 (Hepatitis B virus [3]; [29]): 6 nM
half-life [9]: 2.9 h
log(activity) (Hepatitis B virus [10]): 2.68
concentration at 24 h [11]: 135 ng/g
selectivity ratio [4]: > 1500
AUC(0-t) [12]: 20800 ng·h/mL

Compound: CN(C(=O)Nc1ccc(F)c(Cl)c1)[C@@H]1COCc2[nH]c(=O)c3cc(F)c(F)cc3c21
log(activity) (Hepatitis B virus [6]): 1.04
CC50 [1]: > 10000 nM
Cmax [7]: 690 ng/mL
EC50 (Hepatitis B virus [8]): 400 nM
microsomal CLint [2]: 27 µL/min/mg
IC50 (Cytochrome P450 2D6): > 15000 nM
IC50 (Cytochrome P450 2B6): > 15000 nM
EC50 (Hepatitis B virus [3]; [29]): 7 nM
IC50 (Cytochrome P450 2C9): > 15000 nM
half-life [9]: 3.1 h
log(activity) (Hepatitis B virus [10]): 2.86
concentration at 24 h [11]: 150 ng/g
selectivity ratio [4]: > 1500
AUC(0-t) [12]: 6990 ng·h/mL
IC50 (Cytochrome P450 3A4): > 15000 nM
microsomal CLint [5]: 54 µL/min/mg
IC50 (Cytochrome P450 2C19): > 15000 nM

Compound: CN(C(=O)c1cc2ccc(F)cc2[nH]1)[C@@H]1COCc2[nH]c(=O)c3cc(F)c(F)cc3c21
CC50 [1]: > 10000 nM
microsomal CLint [2]: 44 µL/min/mg
EC50 (Hepatitis B virus [3]; [29]): 9 nM
selectivity ratio [4]: > 1500
microsomal CLint [5]: 53 µL/min/mg

Compound: CN(C(=O)Nc1ccc(F)c(Cl)c1)C1CCCCc2[nH]c(=O)c3ccccc3c21 (racemic)
CC50 [1]: > 10000 nM
EC50 (Hepatitis B virus [3]; [29]): 150 nM
selectivity ratio [4]: > 1500

Compound: CN1Cc2[nH]c(=O)c3cc(F)c(F)cc3c2[C@H](N(C)C(=O)Nc2ccc(F)c(Cl)c2)C1
CC50 [1]: > 10000 nM
EC50 (Hepatitis B virus [3]; [29]): 180 nM
selectivity ratio [4]: > 1500

Compound: CN(C(=O)c1cc2cc(F)c(F)cc2[nH]1)[C@@H]1COCc2[nH]c(=O)c3cc(F)c(F)cc3c21
Activity [13]: Active
log(activity) (Hepatitis B virus [6]): 2.86
EC50 (Hepatitis B virus [14]): 1 nM
CC50 [1]: > 10000 nM
EC50 (Hepatitis B virus [15]): 1 nM
Cmax [7]: 2140 ng/mL
EC50 (Hepatitis B virus [16]): 1 nM
EC50 (Hepatitis B virus [8]): 63 nM
EC50 (Hepatitis B virus [17]): 13 nM
EC50 (Hepatitis B virus [18]): 6 nM
log(activity) (Hepatitis B virus [19]): 2.92
EC50 (Hepatitis B virus [20]): 1 nM
microsomal CLint [2]: 25 µL/min/mg
EC50 (Hepatitis B virus [21]): 1 nM
EC50 (Hepatitis B virus [3]; [29]): 5 nM
EC50 (Hepatitis B virus [22]): 1 nM
half-life [9]: 10.7 h
log(activity) (Hepatitis B virus [23]): 1.48
concentration at 24 h [11]: 4730 ng/g
EC50 (Hepatitis B virus [24]): 26 nM
EC50 (Hepatitis B virus [25]): 1 nM
Activity [26]: Active
selectivity ratio [4]: > 1500
EC50 (Hepatitis B virus [27]): 1 nM
AUC(0-t) [12]: 31800 ng·h/mL
EC50 (Hepatitis B virus [28]): 1 nM
microsomal CLint [5]: 45 µL/min/mg

Compound: CN(C(=O)Nc1ccc(F)c(Cl)c1)C1CCCc2[nH]c(=O)c3c(F)c(F)ccc3c21 (racemic)
CC50 [1]: > 10000 nM
EC50 (Hepatitis B virus [3]; [29]): 440 nM
selectivity ratio [4]: > 1500
